Laboratory results published in PubChem BioAssay AID1918993 (Molecular Pharmacology Branch, DTP, NCI, 2023).

System: 233499-124-R-J3-PDC complex spheroid growth
Assay: Anticancer human tumor 233499-124-R-J3-PDC patient-derived colon adenocarcinoma cell line growth inhibition [AhR]
Settings: for IC50: curve of first compound; for viability, T/C: stronger effect = lower value; active = viability on the fitted dose curve at most 10% of control; inactive = the rest
How it was run: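 Spheroids combined tumor cells with HUVEC endothelial cells and human MSCs as stroma. AhR antagonists were paired with standard or investigational drugs, each dosed in half-log steps down from near clinical Cmax, or from 10 microM where Cmax was unknown.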

[1] = second compound 0.1 µM, first compound 0.0316 µM
[2] = second compound 0.1 µM, first compound 0.1 µM
[3] = second compound 0.1 µM, first compound 0.316 µM
[4] = second compound 0.1 µM, first compound 1 µM
[5] = second compound 0.316 µM, first compound 0.0316 µM
[6] = second compound 0.316 µM, first compound 0.1 µM
[7] = second compound 0.316 µM, first compound 0.316 µM
[8] = second compound 0.316 µM, first compound 1 µM
[9] = second compound 1 µM, first compound 0.0316 µM
[10] = second compound 1 µM, first compound 0.1 µM
[11] = second compound 1 µM, first compound 0.316 µM
[12] = second compound 1 µM, first compound 1 µM
[13] = second compound 3.16 µM, first compound 0.0316 µM
[14] = second compound 3.16 µM, first compound 0.1 µM
[15] = second compound 3.16 µM, first compound 0.316 µM
[16] = second compound 3.16 µM, first compound 1 µM
[17] = second compound 10 µM, first compound 0.0316 µM
[18] = second compound 10 µM, first compound 0.1 µM
[19] = second compound 10 µM, first compound 0.316 µM
[20] = second compound 10 µM, first compound 1 µM
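Also: spheroids exposed to agents for seven days before reading.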

COc1cc(C2c3cc4c(cc3C(OC3OC5COC(C)OC5C(O)C3O)C3COC(=O)C23)OCO4)cc(OC)c1O (stereo not given) + CC(CO)NC(=O)c1cc(-c2ccc(Cl)cc2)nn(-c2cnn(C)c2)c1=O
> 10000 nM: IC50 (second compound 0.1 µM) | IC50 (second compound 0.316 µM) | IC50 (second compound 1 µM) | IC50 (second compound 3.16 µM) | IC50 (second compound 10 µM)
inactive: viability, T/C [1] 102% | viability, T/C [2] 88.7% | viability, T/C [3] 93.6% | viability, T/C [4] 90.1% | viability, T/C (second compound 0.1 µM, first compound 3.16 µM) 98.2% | viability, T/C (second compound 0.1 µM, first compound 10 µM) 77.7% | viability, T/C [5] 93.6% | viability, T/C [6] 97.5% | viability, T/C [7] 96.6% | viability, T/C [8] 88.9% | viability, T/C (second compound 0.316 µM, first compound 3.16 µM) 83.7% | viability, T/C (second compound 0.316 µM, first compound 10 µM) 76.5% | viability, T/C [9] 91% | viability, T/C [10] 94% | viability, T/C [11] 94.2% | viability, T/C [12] 98.4% | viability, T/C (second compound 1 µM, first compound 3.16 µM) 81.4% | viability, T/C (second compound 1 µM, first compound 10 µM) 72.8% | viability, T/C [13] 99.2% | viability, T/C [14] 95.5% | viability, T/C [15] 75.2% | viability, T/C [16] 93.5% | viability, T/C (second compound 3.16 µM, first compound 3.16 µM) 91.5% | viability, T/C (second compound 3.16 µM, first compound 10 µM) 83.9% | viability, T/C [17] 92.7% | viability, T/C [18] 95.5% | viability, T/C [19] 81.8% | viability, T/C [20] 77.6% | viability, T/C (second compound 10 µM, first compound 3.16 µM) 67.4% | viability, T/C (second compound 10 µM, first compound 10 µM) 57.3%

CC(C)CC(NC(=O)C(Cc1ccccc1)NC(=O)c1cnccn1)B(O)O (stereo not given) + CC(CO)NC(=O)c1cc(-c2ccc(Cl)cc2)nn(-c2cnn(C)c2)c1=O
8.01 nM: IC50 (second compound 0.316 µM)
8.47 nM: IC50 (second compound 0.1 µM)
4.96 nM: IC50 (second compound 10 µM)
inactive: viability, T/C (second compound 0.1 µM, first compound 0.000949 µM) 92.4% | viability, T/C (second compound 0.1 µM, first compound 0.003 µM) 102% | viability, T/C (second compound 0.1 µM, first compound 0.00949 µM) 44.9% | viability, T/C (second compound 0.316 µM, first compound 0.000949 µM) 92.1% | viability, T/C (second compound 0.316 µM, first compound 0.003 µM) 93.2% | viability, T/C (second compound 0.316 µM, first compound 0.00949 µM) 42.6% | viability, T/C (second compound 1 µM, first compound 0.000949 µM) 102% | viability, T/C (second compound 1 µM, first compound 0.003 µM) 100% | viability, T/C (second compound 1 µM, first compound 0.00949 µM) 30.6% | viability, T/C (second compound 3.16 µM, first compound 0.000949 µM) 84.5% | viability, T/C (second compound 3.16 µM, first compound 0.003 µM) 88.8% | viability, T/C (second compound 3.16 µM, first compound 0.00949 µM) 27.5% | viability, T/C (second compound 10 µM, first compound 0.000949 µM) 66.5% | viability, T/C (second compound 10 µM, first compound 0.003 µM) 84.2% | viability, T/C (second compound 10 µM, first compound 0.00949 µM) 17.2%
6.87 nM: IC50 (second compound 1 µM)
6.12 nM: IC50 (second compound 3.16 µM)
active: viability, T/C (second compound 0.1 µM, first compound 0.03 µM) 0.09% | viability, T/C (second compound 0.1 µM, first compound 0.0949 µM) 0.09% | viability, T/C (second compound 0.1 µM, first compound 0.3 µM) 0.2% | viability, T/C (second compound 0.316 µM, first compound 0.03 µM) 0.13% | viability, T/C (second compound 0.316 µM, first compound 0.0949 µM) 0.04% | viability, T/C (second compound 0.316 µM, first compound 0.3 µM) 0.12% | viability, T/C (second compound 1 µM, first compound 0.03 µM) 0.08% | viability, T/C (second compound 1 µM, first compound 0.0949 µM) 0.05% | viability, T/C (second compound 1 µM, first compound 0.3 µM) 0.12% | viability, T/C (second compound 3.16 µM, first compound 0.03 µM) 0.1% | viability, T/C (second compound 3.16 µM, first compound 0.0949 µM) 0.13% | viability, T/C (second compound 3.16 µM, first compound 0.3 µM) 0.12% | viability, T/C (second compound 10 µM, first compound 0.03 µM) 0.18% | viability, T/C (second compound 10 µM, first compound 0.0949 µM) 0.12% | viability, T/C (second compound 10 µM, first compound 0.3 µM) 0.18%

Nc1ncn(C2CC(O)C(CO)O2)c(=O)n1 (stereo not given) + CC(CO)NC(=O)c1cc(-c2ccc(Cl)cc2)nn(-c2cnn(C)c2)c1=O
> 1000 nM: IC50 (second compound 0.1 µM) | IC50 (second compound 0.316 µM) | IC50 (second compound 1 µM) | IC50 (second compound 3.16 µM) | IC50 (second compound 10 µM)
inactive: viability, T/C (second compound 0.1 µM, first compound 0.00316 µM) 103% | viability, T/C (second compound 0.1 µM, first compound 0.01 µM) 103% | viability, T/C [1] 104% | viability, T/C [2] 94.1% | viability, T/C [3] 93% | viability, T/C [4] 94.2% | viability, T/C (second compound 0.316 µM, first compound 0.00316 µM) 98.2% | viability, T/C (second compound 0.316 µM, first compound 0.01 µM) 103% | viability, T/C [5] 79.4% | viability, T/C [6] 92.9% | viability, T/C [7] 91% | viability, T/C [8] 95.5% | viability, T/C (second compound 1 µM, first compound 0.00316 µM) 92.3% | viability, T/C (second compound 1 µM, first compound 0.01 µM) 94.5% | viability, T/C [9] 88.9% | viability, T/C [10] 72.5% | viability, T/C [11] 85.6% | viability, T/C [12] 91.9% | viability, T/C (second compound 3.16 µM, first compound 0.00316 µM) 95.9% | viability, T/C (second compound 3.16 µM, first compound 0.01 µM) 104% | viability, T/C [13] 90.4% | viability, T/C [14] 89.5% | viability, T/C [15] 87.1% | viability, T/C [16] 83.2% | viability, T/C (second compound 10 µM, first compound 0.00316 µM) 89.2% | viability, T/C (second compound 10 µM, first compound 0.01 µM) 79.9% | viability, T/C [17] 89.7% | viability, T/C [18] 97.7% | viability, T/C [19] 85.9% | viability, T/C [20] 93.2%
